From patent US10882826B2, “Quinolinone or quinazolinone comprising antibiofilm compositions, compounds and methods and uses relating thereto” (University College Cork—National University of Ireland, priority 2015, dated 2021) come the findings set out here.

SMILES strings stand for the structures.

Data set [1] concerns C. albicans strain SC5314 biofilm. The data set can be described thus: XTT metabolic assay of C. albicans biofilm. As to conditions: for XTT result, Mean (MeOH control = 1) / Absorbance at 492 nm, Mean (XTT): C. albicans biofilm; for Absorbance at 492 nm, Mean (XTT): test compound 100 μM, 24 hr, MeOH control 0.647, untreated 0.851; for effectiveness against fungal biofilms formed by Candida albicans (in words): summary statement. The class given is cell-based, Candida albicans. The method, then:
C. albicans strain SC5314 was sub-cultured from 15% (v/v) glycerol stocks at −80° C. onto Yeast Peptone Dextrose (YPD) medium [1% (w/v) yeast extract, 2% (w/v) peptone and 2% (w/v) dextrose] and incubated at 30° C. overnight.
The test compounds in desiccated form were re-suspended in Methanol to create a 10 mM stock. […]
The ability of some of the compounds detailed in example 1 to disrupt Candida albicans was tested using Confocal Scanning Laser Microscopy and an XTT Metabolic Assay. The XTT assay is a commonly used quantitative method assessing Candida biofilm mass and growth often in response to novel drug therapies.
C. albicans biofilm formation was carried out in 96 well plates by a method of the prior art. Briefly, C. albicans was inoculated into Yeast Nitrogen Base [10% (w/v)] and glucose/maltose [10% (w/v)] and incubated overnight at 30° C. Seeding densities for all subsequent experiments (N=3) were OD600=0.05. Cells were grown in Yeast Nitrogen Base supplemented with 1 M Phosphate buffer and acetyl-D-glucosamine (YNB-NP) along with appropriate volumes of test compound to provide the desired concentration. Cells were cultured in 96 well plates for 1 hr at 37° C. to facilitate yeast attachment. After this incubation, the supernatants were aspirated, the wells washed twice with YNB-NP media, and fresh media with the same concentration of test compound added to the appropriate wells. The plate was incubated for 24 hr at 37° C. The next day, the cultures were aspirated and the wells washed once with YNB-NP media.
C. albicans biofilm quantification was carried out in 96 well plates using a semi-quantitative Tetrazolium salt, 2,3-bis-(2-methoxy-4-nitro-5-sulfophenyl)-2H tetrazolium-5-carboxanilide inner salt (XTT) reduction assay (Hawser, Tunney et al, Antimicrob Agents Chemother. 2004 May; 48(5):1879-81). XTT (0.01 g) was dissolved in sterile water (20 ml) and filter sterilized. 10 μl of Menadione dissolved in Acetone was added to the XTT solution, just before use. The XTT-Menadione Solution (100 μl) was added to each well. The plate was incubated in the dark at 37° C. for up to 2 hr to allow for colour development. The OD492 nm was recorded for each well. Experiments were repeated at least three times, with at least eight technical replicates.
Experiments were first carried out using the test compound at concentration of 100 μM.
(Tetrazolium dyes change colour on reduction, which living cells bring about.)

Data set [2] concerns IB3 lung epithelial cells. The data set can be described thus: LDH release cytotoxicity, IB3-1 cells. The settings on record: 100 μM, 16 hr, percentage of 0.1% Triton (100% cytotoxicity), MeOH 3.844. Format: cell-based. The method, then: (§1) Lactate dehydrogenase (LDH) release from IB3 lung epithelial cells was assayed as a measure of cytotoxicity using an LDH colorimetric kit (Roche) according to manufacturers' instructions. Briefly, IB3-1 cells were seeded onto 96 well plates and treated with methanol (control) and test compounds (100 μM). Following 16 hr incubation at 37° C. and 5% CO2, supernatants were removed and added to catalyst reaction mixture in a fresh plate and further incubated at 37° C. and 5% CO2 for 30 mins to allow for colour development. After this period, the plate was analysed on an ELISA plate reader at OD490 nm. Cytotoxicity was expressed as a percentage of cells treated with 0.1% (v/v) Triton (100% cytotoxicity).
A general note: LDH in the medium is a marker of cell lysis.

A further data set has as its system DU145. The data set can be described thus: LDH release cytotoxicity, DU145. Format: cell-based. The settings on record: DU145 cell line; percentage of 0.1% Triton. The method, then:
as §1, with “cytotoxicity). The results are detailed in table 3:” for “cytotoxicity).”
(§2) The above experiments were repeated, testing some compounds against further cell lines (A549, DU145 and HeLa).

The subject of data set [3] is P. aeruginosa PAO1 pqsA-pqsA-lacZ strain. Put plainly: Phenazine extraction (phenazine production). The settings on record: PAO1 pqsA-pqsA-lacZ strain, test compounds 10 μM, 24 hr; methanol control 0.080. The class given is cell-based. The method, then:
(§3) P. aeruginosa strains, PAO1 and pqsA mutant, containing the chromosomally inserted pqsA-lacZ promoter fusion on plasmid pUC18-mini-Tn7, were sub-cultured from glycerol stocks onto LB agar plates, supplemented with Carbenicillin (200 μg/ml) and X-gal (40 μg/ml), and incubated at 37° C. overnight. Single colonies were inoculated into LB broth (20 ml), supplemented with Carbenicillin (200 μg/ml), and incubated at 37° C., shaking at 180 rpm overnight. For subsequent experiments, the OD600 nm was recorded and a starting OD600 nm of 0.02 was inoculated into fresh LB broth, supplemented with Carbenicillin (200 μg/ml) and incubated at 37° C., shaking at 180 rpm.
(§4) P. aeruginosa strains were cultured as described above for 24 hr, with the addition of test compounds (10 μM). Cultures were centrifuged at 4000 rpm for 10 minutes and the cell free supernatant (5 ml) removed. Chloroform (3 ml) was added, and mixed by vortex. After centrifugation at 4000 rpm for 5 mins, the lower aqueous phase was transferred to 0.2 M HCl (2 ml). Samples were mixed by vortex and centrifuged at 4000 rpm for 5 mins to separate the phases. An aliquot of the top phase (1 ml) was removed and spectrophotmetrically analysed at OD570 nm. Phenazine production was calculated using the following formula: OD570 nm×2×17.072 and the units expressed in μg/ml.
(§5) The phenazine production levels and Miller units in the PAO1 pqsA-pqsA-lacZ strain are detailed in table 5.
(§6) The virulence of compounds B2, C13 and C15 towards P. aeruginosa was assessed using an analogous method.

The subject of data set [4] is pqsA-lacZ promoter fusion. The data set can be described thus: Promoter fusion based expression analysis (pqsA-lacZ, Miller units). The settings on record: PAO1 pqsA-pqsA-lacZ strain, 100 μM, overnight; methanol control 12287. Format: cell-based, P. aeruginosa. The method, then:
as §3
Promoter fusion analyses were performed in a 96-well format. Briefly, overnight cultures of wild-type PAO1 pqsA-lacZ (pLP0996) and mutant strain PAO1 pqsA^− pqsA-LacZ were diluted to OD600 nm=0.02 in LB. Test compounds at 100 μM final concentration were added, mixed, aliquoted into 96 well plates and incubated overnight at 37° C. with shaking. The next day, OD600 nm values were recorded in a plate reader. Aliquots of cells (0.02 ml) were permeabilised [100 mM dibasic sodium phosphate (Na2HPO4), 20 mM KCl, 2 mM MgSO4, 0.8 mg/mL CTAB (hexadecyltrimethylammonium bromide), 0.4 mg/mL sodium deoxycholate, 5.4 μL/mL beta-mercaptoethanol] and added to substrate solution [60 mM Na2HPO4, 40 mM NaH2PO4, 1 mg/mL o-nitrophenyl-β-D-Galactoside (ONPG), 2.7 μL/mL β-mercaptoethanol]. The kinetics of colour development was monitored and the reactions were stopped using 1M NaCO3. OD420 nm were recorded as above. Miller units were calculated using the following equation; 1000×[OD420 nm/(OD600 nm)×0.02 ml×reaction time (mins)].
as §5, §6

The test system of the next data set is Pseudomonus aeruginosa. Put plainly: Virulence of Pseudomonas aeruginosa (summary statement). The settings on record: unlike HHQ and PQS. Format: cell-based. The method, then: The virulence of compounds B1, B2, C2, C3, C4, C5, C6, C8 and C11 towards P. aeruginosa was assessed using the following method:
as §4, with “μg/ml. […]” for “μg/ml.”

Another data set deals with mammalian cells. The data set can be described thus: Cytotoxicity towards mammalian cells (summary statement). Format: cell-based. The method, then:
as §1, with “cytotoxicity). The results are detailed in table 3:” for “cytotoxicity).”
as §2

The subject of data set [5] is A. fumigatus Af293 biofilm. The data set can be described thus: A. fumigatus biofilm assay (crystal violet). Format: cell-based, Aspergillus fumigatus. The method, then: A. fumigatus Af293 was routinely grown on Sabouraud dextrose agar (SDA) in 100 ml cell culture flasks at 37° C. for 3-4 days until a lawn of fungal growth was observed.
(§7) A. fumigatus Af293 was grown on SDA in 100 ml cell culture flasks at 37° C. for 3-4 days. Conidia were harvested by flooding the surface of the agar plates with 5 ml PBS (Oxoid) containing 0.025% (v/v) Tween 20 and gently moving the liquid over the surface of the fungal lawn. The conidial suspension was transferred into a 25 ml sterile container and conidia were counted using a Neubauer haemocytometer and light microscope. Conidia were adjusted to the required concentration in RPMI 1640 (Sigma) buffered to pH 7.0 with 0.165 M MOPS immediately prior to biofilm formation analysis.
(§8) To assess biofilm formation, counted A. fumigatus spores (1×10^5) in MOPS buffered RPMI 1640 were inoculated into 24- and 96-well plates and grown overnight in the presence of 100 μM HHQ, PQS and the test compounds. After 24 hrs, the media was removed and the biofilm washed twice with distilled water after which 0.1% crystal violet (CV) was added to each well and allowed to stand for 1 hr at room temperature. The crystal violet was removed and all wells washed in a water bath by inversion. Ethanol was added to each well to solubilise biofilms after which samples were read on a spectrophotometer at Abs595 nm.

In data set [6] the test system is A. fumigatus CFBRC1 biofilm. Put plainly: A. fumigatus biofilm assay, clinical source CFBRC1. The class given is cell-based, Aspergillus fumigatus. The settings on record: biofilm from clinical source CFBRC1. On the procedure: as §7, §8
(§9) The above experiments were carried out using biofilms grown from laboratory sources of A. fumigatus. The experiments were repeated to test some compounds against biofilms grown from three different clinical sources of A. fumigatus (CFBRC1, CFBRC2 and CFBRC3. The results are shown in table 8: […]

For data set [7], the system named is A. fumigatus CFBRC2 biofilm. The data set can be described thus: A. fumigatus biofilm assay, clinical source CFBRC2. Format: cell-based, Aspergillus fumigatus. As to conditions: biofilm from clinical source CFBRC2. The method, then: as §7, §8, §9
Data set [8] has as its system A. fumigatus CFBRC3 biofilm. Put plainly: A. fumigatus biofilm assay, clinical source CFBRC3. The class given is cell-based, Aspergillus fumigatus. The settings on record: biofilm from clinical source CFBRC3. The method, then:
as §7, §8, §9

Regarding `CCCCCCCc1cc(=O)c2cc(C)ccc2[nH]1` [Compound C3], the “XTT result, Mean (MeOH control = 1)” value in [1] (10 μM) is recorded as 0.71; in [1] (50 μM), 0.57; in data set [1] (100 μM) it was 0.51. Moreover, in [1], the “Absorbance at 492 nm, Mean (XTT)” value was 0.307. Also, the “effectiveness against fungal biofilms formed by Candida albicans (in words)” value in [1] was “effective”. In addition, the “% Cytotoxicity, Mean (LDH release)” value in data set [2] was 23.77%. The “Cytotoxicity, Mean (LDH release)” value with DU145 is given as 32.42%. Also, the “Phenazine, Mean” value in data set [3] was 0.774 µg/mL. In addition, the “Miller Units, Mean” value in [4] came out at 18350 Miller Units. Also, the “effect on virulence of Pseudomonus aeruginosa (in words)” value (“effect on virulence” for short) in the data set with Pseudomonus aeruginosa is given as “do not increase the virulence”.
Turning to `CCCCCCCn1c(=O)cc(O)c2ccccc21` [Compound C6], in data set [1], the “Absorbance at 492 nm, Mean (XTT)” value came out at 0.336 and the “effectiveness against fungal biofilms formed by Candida albicans (in words)” value is on record as “effective”. The “% Cytotoxicity, Mean (LDH release)” value in [2] was 19.70%. Also, the “Phenazine, Mean” value in [3] was found to be 0.011 µg/mL. Moreover, the “Miller Units, Mean” value in [4] stood at 16678 Miller Units. Moreover, the “cytotoxicity towards mammalian cells (in words)” value with mammalian cells is reported as “reduced cytotoxicity”. The “effect on virulence” value in the data set with Pseudomonus aeruginosa is “do not increase the virulence”.
On to `CCCCCCCCCc1cc(=O)c2ccccc2[nH]1` [Compound C10], for which the “XTT result, Mean (MeOH control = 1)” value in [1] (10 μM) is 0.58; in data set [1] (50 μM), 0.50; in [1] (100 μM), 0.53. For the same compound, the “Absorbance at 492 nm, Mean (XTT)” value in data set [1] turned out to be 0.419. The “Cytotoxicity, Mean (LDH release)” value with DU145 is listed as 31.7%. Also, in data set [5] (A. fumigatus Af293 biofilm, 100 μM, 24 hrs, crystal violet), the “Relative absorbance at 595 nm compared to methanol control, Mean” value is 0.24. Moreover, the “effectiveness against fungal biofilms formed by Aspergillus fumigatus (in words)” value in data set [5] (summary statement) was “effective”. In addition, the figures for the “Relative absorbance compared to MeOH (=1), Mean” value in data set [6], in [7] and in data set [8] were 0.772, 0.567 and 0.670, respectively. The “cytotoxicity towards mammalian cells (in words)” value with mammalian cells is “reduced cytotoxicity”. For the same compound, the “effect on virulence” value in the data set on Pseudomonus aeruginosa is given as “do not increase the virulence”.
